This passage reports Ki and EC50 results from patent publication US6489364B2, “Antiviral protease inhibitors” (priority 1997, dated 2002).

Structures are written as SMILES. Values after ≈ are worked out from the molar mass of the structure shown. Where two headings read alike, the source gives them in different places.

The target in one experiment is T1, purified HIV proteinase (Human immunodeficiency virus type 1 group M subtype B, UniProt P04585).
T1 construct: purified HIV proteinase
Put plainly: biochemical. As to the method: Representative compounds were tested for HIV protease activity in a spectrophotometric enzyme assay using the chromogenic substrate His-Lys-Ala-Arg-Val-Leu-p-nitro-Phe-Glu-Ala-Nle-Ser-amide and purified HIV proteinase. The rate of cleavage is followed by continuously registering the change in absorbance at 300 nm. […]

In the next experiment the test system is HIV-1. Put plainly: HIV-1 infected MT4 cell culture, XTT assay. The class given is cell-based. The protocol:
Compounds are also tested for HIV protease activity in cell culture. MT4 cells grown in RPMI 1640 cell culture medium including 10% fetal calf serum are infected with 10 TCID HIV-1 per 2×10^5 cells and cultured for 6 days. XTT is added and the amount of XTT formazan produced in the following 6 hours represents the number of surviving cells. Results are expressed as the ED50, that is the concentration in μg/ml of the compound of the invention which suppresses viral replication by 50%.

[1] abbreviates: values in parentheses, affinity constant, read-out: (Ki μM).
The mark [2] stands for this setting: Human immunodeficiency virus 1, 144 h, second part of Table 1, head EC50, MT4 cells, HIV-1, 6 days, XTT, read-out: EC50.
The mark [3] stands for this setting: Human immunodeficiency virus 1, MT4, 144 h.

What is called Ki is a measure of affinity in units of concentration, obtained from inhibition or displacement. What is called EC50 is the concentration giving half of the maximal effect. Regarding `O=C(N[C@H]1c2ccccc2C[C@H]1O)[C@@H](C[C@@H](O)[C@@H](OCc1ccccc1)C(=O)N[C@H]1c2ccccc2C[C@H]1O)OCc1ccccc1` [Example 26, N1,N6-di[(1S,2R)-2-hydroxy-2,3-dihydro-1H-1-indenyl]-(2R,3R,5R)-2,5-di(benzyloxy)-3-hydroxyhexanediamide], the inhibition constant (Ki) at purified HIV proteinase (setting [1]) was 970 pM. Further, the EC50 in the experiment with HIV-1 (setting [2]) turned out to be 0.8 µg/mL (≈ 1.26 µM).

Take `O=C(NCc1c(F)cccc1Cl)[C@H](OCc1ccccc1F)[C@H](O)[C@@H](O)[C@@H](OCc1ccccc1F)C(=O)N[C@H]1c2ccccc2C[C@H]1O` [Example 27, N1-[(1S,2R)-2-hydroxy-2,3-dihydro-1H-1-indenyl]-N6-(2-chloro-6-fluorobenzyl)-(2R,3R,4R,5R,)-2,5-di(2-fluorobenzyloxy)-3,4-dihydroxyhexanediamide]: the Ki at purified HIV proteinase (setting [1]) was found to be 1400 pM. Moreover, the EC50 with HIV-1 (setting [2]) stood at 0.8 µg/mL (≈ 1.14 µM).

At purified HIV proteinase, `CNC(=O)[C@@H](NC(=O)[C@H](OCc1ccc(/C=C/C(=O)OC)cc1)[C@H](O)[C@@H](O)[C@@H](OCc1ccc(/C=C/C(=O)OC)cc1)C(=O)N[C@H](C(=O)NC)C(C)C)C(C)C` [Example 31] returned an inhibition constant Ki of 90 pM. This molecule registered a 50% effective concentration (EC50) with HIV-1 (setting [3]) of 0.3 µg/mL (≈ 0.383 µM).

As for `CCOC1=C(c2ccc(CO[C@@H](C(=O)N[C@H](C(=O)NC)C(C)C)[C@H](O)[C@@H](O)[C@@H](OCc3ccc(C4=C(OCC)C(=O)CCC4)cc3)C(=O)N[C@H](C(=O)NC)C(C)C)cc2)CCCC1=O` [Example 32], the inhibitory constant (Ki) at purified HIV proteinase (setting [1]) was found to be 300 pM. For the same molecule, in the experiment with HIV-1 (setting [2]), the EC50 was 0.2 µg/mL (≈ 0.224 µM).

In the case of `CNC(=O)[C@@H](NC(=O)[C@H](OCc1ccc(C2=C(O)C(=O)CCC2)cc1)[C@H](O)[C@@H](O)[C@@H](OCc1ccc(C2=C(O)C(=O)CCC2)cc1)C(=O)N[C@H](C(=O)NC)C(C)C)C(C)C` [Example 33], at purified HIV proteinase, the inhibition constant Ki turned out to be 500 pM. This molecule came in with an EC50 in the experiment with HIV-1 (setting [3]) of 0.2 µg/mL (≈ 0.24 µM).
